Measurements from patent US9630961B2, “Arginine methyltransferase inhibitors and uses thereof” (Epizyme, Inc., priority 2013, dated 2017).

These compounds were tested against T1, PRMT3 (Homo sapiens, UniProt O60678) (assay: PRMT3 Biochemical Assay (3H-SAM Flashplate, peptide substrate)). Details: 30 min preincubation, room temperature.
T1 construct: GST-tagged PRMT3; made in house; host or cells: E. coli BL21(DE3) Gold
From the text: S-adenosylmethionine (SAM), S-adenosylhomocysteine (SAH), bicine, Tween20, dimethylsulfoxide (DMSO), bovine skin gelatin (BSG), isopropyl-β-D-thiogalactopyranoside (IPTG), and Tris(2-carboxyethyl)phosphine hydrochloride solution (TCEP) were purchased from Sigma-Aldrich at the highest level of purity possible. ^3H-SAM was purchase from American Radiolabeled Chemicals with a specific activity of 80 Ci/mmol. 384-well streptavidin Flashplates were purchased from PerkinElmer.
Peptide containing the classic RMT substrate motif was synthesized with an N-terminal linker-affinity tag motif and a C-terminal amide cap by 21st Century Biochemicals. The peptide was purified by high-performance liquid chromatography (HPLC) to greater than 95% purity and confirmed by liquid chromatography mass spectrometry (LC-MS). The sequence was Biot-Ahx-[…]-amide (SEQ ID NO.:11).
Full-length human PRMT3 (NM_005788.3) isoform 1 transcript clone was amplified from an HEK 293 cDNA library and subcloned into pGEX-KG (GE Life Sciences). The resulting construct encodes an N-terminal GST tag and a thrombin cleavage sequence ([…] […] […] […]) (SEQ ID NO.: 12) fused directly to Cys 2 of PRMT3.
E. coli (BL21(DE3) Gold, Stratagene) made competent by the CaCl2 method were transformed with the PRMT3 construct and ampicillin selection. Protein over-expression was accomplished by growing the PRMT3 expressing E. coli clone and inducing expression with 0.3 mM IPTG at 16° C. The culture was grown for 12 hours, harvested by centrifugation, and stored at −80° C. for purification.
GST-tagged PRMT3 eluted with 25-400 mM phosphate in buffer C. Protein was concentrated and buffer was exchanged to 20 mM Tris, 150 mM NaCl, 5% glycerol, 5 mM β-mercaptoethanol, pH7.8 by ultrafiltration. The purity of recovered protein was 70%.
General Procedure for PRMT3 Enzyme Assays on Peptide Substrates.
The assays were all performed in a buffer consisting of 20 mM Bicine (pH=7.6), 1 mM TCEP, 0.005% BSG, and 0.002% Tween 20, prepared on the day of use. Compounds in 100% DMSO (1 ul) were spotted into a polypropylene 384-well V-bottom plates (Greiner) using a Platemate Plus outfitted with a 384-channel head (Thermo Scientific). DMSO (1 ul) was added to Columns 11, 12, 23, 24, rows A-H for the maximum signal control and 1 ul of SAH, a known product and inhibitor of PRMT3, was added to columns 11, 12, 23, 24, rows I-P for the minimum signal control. A cocktail (40 ul) containing the PRMT3 enzyme was added by Multidrop Combi (Thermo-Fisher). The compounds were allowed to incubate with PRMT3 for 30 min at room temperature, then a cocktail (10 ul) containing SAM and peptide was added to initiate the reaction (final volume=51 ul). The final concentrations of the components were as follows: PRMT3 was 0.5 nM, ^3H-SAM was 100 nM, non-radiolabeled SAM was 1.8 uM, peptide was 330 nM, SAH in the minimum signal control wells was 1 mM, and the DMSO concentration was 2%. The assays were stopped by the addition of potassium chloride (10 ul) to a final concentration of 100 mM. 50 ul of the reaction in the 384-well polypropylene plate was then transferred to a 384-well Flashplate and the biotinylated peptides were allowed to bind to the streptavidin surface for at least 1 hour before being washed once with 0.1% Tween20 in a Biotek ELx405 plate washer. The plates were then read in a PerkinElmer TopCount plate reader to measure the quantity of ^3H-labeled peptide bound to the Flashplate surface, measured as disintegrations per minute (dpm) or alternatively, referred to as counts per minute (cpm).
Where dpm=disintegrations per minute, cmpd=signal in assay well, and min and max are the respective minimum and maximum signal controls.
Where top and bottom are the normally allowed to float, but may be fixed at 100 or 0 respectively in a 3-parameter fit. The Hill Coefficient normally allowed to float but may also be fixed at 1 in a 3-parameter fit. […]

T1 sequence (O60678 with tags, fused parts or gaps): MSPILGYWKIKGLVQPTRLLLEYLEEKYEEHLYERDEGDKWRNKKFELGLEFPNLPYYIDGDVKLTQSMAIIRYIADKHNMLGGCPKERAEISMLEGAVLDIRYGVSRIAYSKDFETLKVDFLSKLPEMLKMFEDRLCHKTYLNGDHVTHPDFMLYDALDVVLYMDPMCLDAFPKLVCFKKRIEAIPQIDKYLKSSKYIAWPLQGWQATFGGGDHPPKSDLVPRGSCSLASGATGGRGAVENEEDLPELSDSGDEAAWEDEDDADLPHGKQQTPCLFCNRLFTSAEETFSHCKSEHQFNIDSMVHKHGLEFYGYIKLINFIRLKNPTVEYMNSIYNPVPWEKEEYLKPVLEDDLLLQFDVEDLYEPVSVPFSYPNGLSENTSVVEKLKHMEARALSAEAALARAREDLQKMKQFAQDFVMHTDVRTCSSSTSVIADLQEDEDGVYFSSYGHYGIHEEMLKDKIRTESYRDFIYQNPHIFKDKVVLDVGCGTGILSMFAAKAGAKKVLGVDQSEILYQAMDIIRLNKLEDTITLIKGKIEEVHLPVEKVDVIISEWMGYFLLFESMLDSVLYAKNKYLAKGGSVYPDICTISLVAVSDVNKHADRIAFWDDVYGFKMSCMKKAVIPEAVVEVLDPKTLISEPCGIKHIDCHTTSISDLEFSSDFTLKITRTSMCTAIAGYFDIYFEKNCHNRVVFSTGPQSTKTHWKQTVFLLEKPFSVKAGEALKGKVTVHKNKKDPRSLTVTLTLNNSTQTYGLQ

| SMILES | IC50 |
| --- | --- |
| CN(CCN)Cc1c[nH]nc1-c1ccsc1 [Compound 3] | 3.01 to 10 µM |
| CN(CCN)Cc1c[nH]nc1-c1cccs1 [Compound 5] | ≥ 10 µM |
| CN(CCN)Cc1c[nH]nc1-c1cc[nH]n1 [Compound 14] | ≥ 10 µM |
| CN(CCN)Cc1c[nH]nc1-c1cnn(-c2ccccc2)c1 [Compound 17] | 3.01 to 10 µM |
| CN(CCN)Cc1c[nH]nc1-c1ccnn1C [Compound 15] | ≥ 10 µM |
| CN(CCN)Cc1c[nH]nc1-c1cnn(C)c1 [Compound 8] | ≥ 10 µM |
| COc1ncc(-c2n[nH]cc2CN(C)CCN)cn1 [Compound 11] | ≥ 10 µM |
| CN(CCN)Cc1c[nH]nc1-c1ccc2scnc2c1 [Compound 9] | 3.01 to 10 µM |
| Cc1noc(C)c1-c1n[nH]cc1CN(C)CCN [Compound 10] | ≥ 10 µM |
| CN(CCN)Cc1c[nH]nc1-c1ccoc1 [Compound 7] | ≥ 10 µM |
| CN(CCN)Cc1c[nH]nc1-c1cn[nH]c1 [Compound 12] | ≥ 10 µM |
| CCn1cc(-c2n[nH]cc2CN(C)CCN)cn1 [Compound 16] | 3.01 to 10 µM |
| CN(CCN)Cc1c[nH]nc1-c1ccco1 [Compound 6] | 3.01 to 10 µM |
| CN(CCN)Cc1c[nH]nc1-c1cncnc1 [Compound 4] | ≥ 10 µM |
| CN(CCN)Cc1c[nH]nc1-c1cnc2[nH]ccc2c1 [Compound 13] | 1.01 to 3 µM |

Second part, the compound after the results:

| IC50 | SMILES |
| --- | --- |
| 3.01 to 10 µM | CN(CCN)Cc1c[nH]nc1-c1ccc2ncnn2c1 [Compound 20] |
| ≥ 10 µM | CN(CCN)Cc1c[nH]nc1-c1cnn(CCO)c1 [Compound 18] |
| 3.01 to 10 µM | CN(CCN)Cc1c[nH]nc1-c1cnn(Cc2ccccc2)c1 [Compound 24, N^1-((1′-benzyl-3,4′-bi(1H-pyrazol)-4-yl)methyl)-N^1-methylethane-1,2-diamine] |
| 3.01 to 10 µM | CN(CCN)Cc1c[nH]nc1-c1ccc2cnn(C)c2c1 [Compound 19, N^1-methyl-N^1-((3-(1-methyl-1H-indazol-6-yl)-1H-pyrazol-4-yl)methyl)ethane-1,2-diamine] |
| 3.01 to 10 µM | CC(C)Cn1cc(-c2n[nH]cc2CN(C)CCN)cn1 [Compound 23, N^1-((2′-isobutyl-3,4′-bi(1H-pyrazol)-4-yl)methyl)-N^1-methylethane-1,2-diamine] |
| 3.01 to 10 µM | CN(CCN)Cc1c[nH]nc1-c1ccc2nccn2c1 [Compound 21, N^1-((3-(imidazo[1,2-a]pyridin-6-yl)-1H-pyrazol-4-yl)methyl)-N^1-methylethane-1,2-diamine] |
| 3.01 to 10 µM | CC(C)n1cc(-c2n[nH]cc2CN(C)CCN)cn1 [Compound 22] |
